The record followed here is patent US20080318326A1 (priority 2005, published 2008).

A short description of this assay: Alamethicin channel currents across PTFE-supported bilayer lipid membrane. The class given is biochemical. Particulars: alamethicin 100 ng/ml on both sides of PTFE support matrix. The method, then:
Alamethicin is a peptide that spontaneously inserts itself into a bilayer lipid membrane. Molecules of alamethicin can diffuse within the plane of the membrane and may associate with other alamethicin molecules to form a channel for the passage of small ions when a voltage is applied across a bilayer lipid membrane.
Given the above, alamethicin was used as an indicator of bilayer lipid membrane formation success.
In this example, alamethicin is dissolved in 100% ethanol (5 μg/ml) and stored at 4° C. After the bilayer lipid membrane is formed, alamethicin is added to solutions on both sides of the PTFE support matrix 11 to a final concentration of 100 ng/ml. Electrochemical measurements were then carried out using a two electrode system. Silver/silver chloride wires were used as the working and reference electrodes and based on measurements taken, channels were observed after 10 minutes.
The nature of the electrical current caused by the flow of ions is understood to be dependent on: • 1. The concentration of ions bathing the bilayer lipid membrane, • 2. The voltage applied and, • 3. The concentration of alamethicin.

Peptide text beside a SMILES is read from it.

Regarding `CC(=O)NC(C)(C)C(=O)N1CCC[C@H]1C(=O)NC(C)(C)C(=O)N[C@@H](C)C(=O)NC(C)(C)C(=O)N[C@@H](C)C(=O)N[C@@H](CCC(N)=O)C(=O)NC(C)(C)C(=O)N[C@H](C(=O)NC(C)(C)C(=O)NCC(=O)N[C@@H](CC(C)C)C(=O)NC(C)(C)C(=O)N1CCC[C@H]1C(=O)N[C@H](C(=O)NC(C)(C)C(=O)NC(C)(C)C(=O)N[C@@H](CCC(=O)O)C(=O)N[C@@H](CCC(N)=O)C(=O)N[C@H](CO)Cc1ccccc1)C(C)C)C(C)C` [alamethicin] (HELM PEPTIDE1{[ac].[Aib].P.[Aib].A.[Aib].A.Q.[Aib].V.[Aib].G.L.[Aib].P.V.[Aib].[Aib].E.Q.[OC[C@H](Cc1ccccc1)N[*:1]]}$$$$V2.0), the “time after which channels were observed” value came to 10 min.
